Assay results published in patent publication US12495798B2, “Nicotinamide compound and herbicidal composition comprising compound” (KOREA RESEARCH INSTITUTE OF CHEMICAL TECHNOLOGY, priority 2019, dated 2025).

What was measured:
Assay type in all cases: in vivo
crabgrass = assay: Herbicidal activity test against upland field weeds (foliar treatment test); details: 50 g ai/ha, scale 0-100; for pest or weed control at 50 g/ha: Digitaria sanguinalis
How it was run: (§1)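 Weeds were raised from seed or rootstocks in horticultural soil in a greenhouse (30±5° C., 14/10 h light/dark), then foliage was hand-sprayed with compound at 50 or 75 g a.i./ha in 50% acetone with 0.1% Tween-20. Control was scored visually 0–100 against untreated plants after 14 days, or 21 if needed.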

sorghum [1] = assay: Herbicidal activity test against upland field weeds (soil treatment test); parameters: key to Soil treatment herbicidal activity, Sorghum: 0 (no control); 100 (complete control); details: 50 g ai/ha, scale 0 (no control) to 100 (complete control)
How it was run: (§2)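 Pre-emergence test: seeds or rootstocks were sown in fertilized sandy loam, and the next day the soil surface was sprayed with compound at 50 or 75 g a.i./ha in 50% acetone/0.1% Tween-20. Plants were grown in a greenhouse (30±5 °C, 14/10 h light/dark), then visually scored 0–100 against untreated at 14 d (21 d if needed).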

fall panicum = assay: as above; parameters: key to Soil treatment herbicidal activity, Fall panicum: 0 (no control); 100 (complete control); details: 50 g ai/ha, scale 0 (no control) to 100 (complete control); for pest or weed control at 50 g/ha: Panicum dichotomiflorum
How it was run: as §2

quack grass = assay: as above; parameters: key to Soil treatment herbicidal activity, quack grass: 0 (no control); 100 (complete control); details: 50 g ai/ha, scale 0 (no control) to 100 (complete control)
How it was run: as §2

black nightshade = assay: Herbicidal activity test against upland field weeds (foliar treatment test); parameters: key to Foliar treatment herbicidal activity, black nightshade: 0 (no control); 100 (complete control); details: 50 g ai/ha, scale 0-100
How it was run: as §1

soybean = assay: Phytotoxicity test for upland field crops (foliar treatment test); parameters: key: 0 (no harm); 9 (complete withered)
How it was run: (§3)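 Application rate ranged 19˜300 g a.i./ha, delivered as a foliar spray (100 ml/m^2) in 33% acetone with 0.1% Tween-20 to crops raised at 30±5 °C under 14/10 h light/dark. Symptoms were assessed 7 and 14 days post-treatment, extending to 21 days where necessary, using a 0–9 injury grade relative to untreated control.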

cotton = assay: as above; parameters: key: 0 (no harm); 9 (complete withered)
How it was run: as §3

corn = assay: as above; parameters: key: 0 (no harm); 9 (complete withered)
How it was run: as §3

rice = assay: as above; parameters: key: 0 (no harm); 9 (complete withered)
How it was run: as §3

wheat = assay: as above; parameters: key: 0 (no harm); 9 (complete withered)
How it was run: as §3

velvetleaf [2] = assay: Herbicidal activity test against upland field weeds (soil treatment test); parameters: key to Soil treatment herbicidal activity, velvet leaf: 0 (no control); 100 (complete control); details: 50 g ai/ha, scale 0 (no control) to 100 (complete control)
How it was run: as §2

velvetleaf [3] = assay: Herbicidal activity test against upland field weeds (foliar treatment test); parameters: key to Foliar treatment herbicidal activity, velvet leaf: 0 (no control); 100 (complete control); details: 50 g ai/ha; for Foliar treatment herbicidal activity, velvet leaf: scale 0-100
How it was run: as §1

sorghum [4] = assay: as above; details: 50 g ai/ha, scale 0-100; for plant injury at 50 g/ha: Sorghum
How it was run: as §1

[5] = 50 g ai/ha, Soybean (7 days after treatment)
[6] = 50 g ai/ha, Soybean (14 days after treatment)
[7] = 100 g ai/ha, Soybean (7 days after treatment)
[8] = 100 g ai/ha, Soybean (14 days after treatment)
[9] = 50 g ai/ha, Cotton (7 days after treatment)
[10] = 50 g ai/ha, Cotton (14 days after treatment)
[11] = 100 g ai/ha, Cotton (7 days after treatment)
[12] = 100 g ai/ha, Cotton (14 days after treatment)
[13] = 50 g ai/ha, Corn (7 days after treatment)
[14] = 50 g ai/ha, Corn (14 days after treatment)
[15] = 100 g ai/ha, Corn (7 days after treatment)
[16] = 100 g ai/ha, Corn (14 days after treatment)
[17] = 50 g ai/ha, Rice (7 days after treatment)
[18] = 50 g ai/ha, Rice (14 days after treatment)
[19] = 100 g ai/ha, Rice (7 days after treatment)
[20] = 100 g ai/ha, Rice (14 days after treatment)
[21] = 50 g ai/ha, Wheat (7 days after treatment)
[22] = 50 g ai/ha, Wheat (14 days after treatment)
[23] = 100 g ai/ha, Wheat (7 days after treatment)
[24] = 100 g ai/ha, Wheat (14 days after treatment)

SMILES	pest or weed control at 50 g/ha (crabgrass)	Soil treatment herbicidal activity, Sorghum (sorghum [1])	pest or weed control at 50 g/ha (fall panicum)	Soil treatment herbicidal activity, quack grass (quack grass)	Foliar treatment herbicidal activity, black nightshade (black nightshade)	Foliar treatment phytotoxicity, Soybean (soybean; [5])	Foliar treatment phytotoxicity, Soybean (soybean; [6])	Foliar treatment phytotoxicity, Soybean (soybean; [7])	Foliar treatment phytotoxicity, Soybean (soybean; [8])	Foliar treatment phytotoxicity, Cotton (cotton; [9])	Foliar treatment phytotoxicity, Cotton (cotton; [10])	Foliar treatment phytotoxicity, Cotton (cotton; [11])	Foliar treatment phytotoxicity, Cotton (cotton; [12])	Foliar treatment phytotoxicity, Corn (corn; [13])	Foliar treatment phytotoxicity, Corn (corn; [14])	Foliar treatment phytotoxicity, Corn (corn; [15])	Foliar treatment phytotoxicity, Rice (rice; [17])	Foliar treatment phytotoxicity, Rice (rice; [18])	Foliar treatment phytotoxicity, Wheat (wheat; [21])	Foliar treatment phytotoxicity, Wheat (wheat; [22])	also measured
Cn1nnnc1COCc1nc(C(F)(F)F)ccc1C(=O)Nc1nnnn1C [Compound No. 1-61, N-(1-methyl-1H-tetrazol-5-yl)-2-(((1-methyl-1H-tetrazol-5-yl)methoxy)methyl)-6-(trifluoromethyl)nicotinamide]	95%	0	95%	0	100	6	9	0	9	3	6	0	7	0	0	0	4	6	4	3	Foliar treatment phytotoxicity, Corn (corn; [16]): 0; Foliar treatment phytotoxicity, Rice (rice; [19]): 5; Foliar treatment phytotoxicity, Rice (rice; [20]): 6; Foliar treatment phytotoxicity, Wheat (wheat; [23]): 0; Foliar treatment phytotoxicity, Wheat (wheat; [24]): 6; pest or weed control at 50 g/ha (velvetleaf [2]; Abutilon theophrasti, read-out: Soil treatment herbicidal activity, velvet leaf): 90%; Foliar treatment herbicidal activity, velvet leaf (velvetleaf [3]): 100; plant injury at 50 g/ha (sorghum [4]): 20%
Cn1nnc(COCc2nc(C(F)(F)F)ccc2C(=O)N(c2nnnn2C)S(C)(=O)=O)n1 [Compound No. 2-69, N-(1-methyl-1H-tetrazol-5-yl)-2-(((2-methyl-2H-tetrazol-5-yl)methoxy)methyl)-N-(methylsulfonyl)-6-(trifluoromethyl)nicotinamide]	70%	–	98%	0	–	6	6	–	–	4	9	–	–	4	3	–	6	7	0	0	plant injury at 50 g/ha (sorghum [1]; Sorghum): 70%; pest or weed control at 50 g/ha (black nightshade; Solanum nigrum): 95%; Soil treatment herbicidal activity, velvet leaf (velvetleaf [2]): 100; pest or weed control at 50 g/ha (velvetleaf [3]; Abutilon theophrasti, scale 0-100, read-out: Foliar treatment herbicidal activity, velvet leaf): 80%; plant injury at 50 g/ha (sorghum [4]): 40%
CCOC(=O)OC(C)N(C(=O)c1ccc(C(F)(F)F)nc1COCc1nnn(C)n1)c1nnnn1C (centres unmarked) [Compound No. 4-8, ethyl(1-(N-(1-methyl-1H-tetrazol-5-yl)-2-(((2-methyl-2H-tetrazol-5-yl)methoxy)methyl)-6-(trifluoromethyl)nicotinamido)ethyl)carbonate]	–	70	–	0	100	0	0	0	0	0	0	0	0	0	0	0	0	0	2	1	Foliar treatment herbicidal activity, Crabgrass (crabgrass): 98; Soil treatment herbicidal activity, Fall panicum (fall panicum): 0; Foliar treatment phytotoxicity, Corn (corn; [16]): 0; Foliar treatment phytotoxicity, Rice (rice; [19]): 0; Foliar treatment phytotoxicity, Rice (rice; [20]): 0; Foliar treatment phytotoxicity, Wheat (wheat; [23]): 2; Foliar treatment phytotoxicity, Wheat (wheat; [24]): 2; Soil treatment herbicidal activity, velvet leaf (velvetleaf [2]): 100; Foliar treatment herbicidal activity, velvet leaf (velvetleaf [3]): 100; Foliar treatment herbicidal activity, Sorghum (sorghum [4]): 70
